Source: patent US20220118117A1, “MODULATORS OF METABOTROPIC GLUTAMATE RECEPTOR 4” (The General Hospital Corporation, priority 2019, published 2022)
“And” between values parts separate entries of the source, which are not always exact repeats. Equal values may be shown once.

Legend:
[1] = microsomal stability; type: in vitro ADME, Sprague-Dawley rat; details: rat liver microsomes, NADPH
Procedure: First, Sprague-Dawley rat liver microsomes (0.5 mg/mL, Sigma-Aldrich, No. M9066) was incubated with PBS (50 mM, pH=7.4) in a reaction tube at 37° C. for 3 min. To the reaction tube were added the test compound (2 μM) and then cofactor, NADPH (1 mM), to start the reaction. The mixture was shaken in a water bath at 37° C. At different time points (0, 5, 10, 15, 30 min), aliquots (50 μL) were removed and added to 100 μl of cold acetonitrile with internal standard (25 μM) to quench the reaction. The precipitated material was by centrifugation (10,000×g, 10 min, 4° C.), and the supernatant was analyzed by RP-HPLC (Column: Phenomenex Luna© 5 μm, Cis, 100 Å, 250×4.6 mm). The RP-HPLC was carried out by using a 15-min gradient method: eluent A: 0.1% formic acid/H2O; eluent B: 0.1% formic acid/CH3CN; gradient: […]; 5% B to 95% B from 1 to 9 min, 95% B from 9 to 12 min, 95% to 5% B from 12 to 13 min, 5% B from 13 to 15 min; flow rate at 0.7 mL/min.
The in peak area ratio (test compound peak area at a time point/peak area at 0 min time point) was plotted against time and the gradient of the line was determined. Subsequently, the half-life (t1/2) was calculated as 0.693/k, where the elimination rate constant k equals to −gradient. V (μL/mg) was obtained as a ratio of volume of incubation […]/protein in the incubation (mg). Finally, the intrinsic clearance (CLint) (μL/min/mg protein) was calculated as V*0.693/t1/2.

[2] = plasma stability; type: in vitro ADME; details: rat plasma; for Plasma stability, remaining of the intact test compound: 37° C.
Procedure: Briefly, each tube is added 882 μL of 1:1 diluted rat plasma with phosphate buffer (pH 7.4). 18 μL (100 μM) of DMSO stock solution of the test compound (4, 13 and 15) or positive control compound (Diltiazem) was added to make a final compound concentration 2 μM in the plasma solution and final DMSO content 2%. The mixture was incubated at 37° C. After the incubation at 0, 15, 30, 60, and 120 min time points, aliquots of 50 μL samples were quenched with 100 μL of ice-cold acetonitrile with 25 μM of the internal reference (for HPLC analysis), respectively. The quenched samples were centrifuged at 10,000×g, and the supernatant was analyzed by HPLC. The percentage of remaining intact test compound was calculated by (peak area at the specific time point)/(peak area at 0 min)×100. Every sample was assayed three times.

[3] = target: mGluR4 (Homo sapiens, UniProt Q14833); assay: competitive binding (radioligand replacement) assay with [3H]4 in mGluR4 transfected CHO cells; design: expressed in transfected cells; host or cells: CHO cells; details: 2 nM [3H]4, read-out: IC50 (nM), affinity to mGluR4
Procedure: In Vitro mGluR4 Binding Assay. CHO cells expressing mGluR4 were used for all binding assay protocols. For competitive binding, 2 nM of [^3H]4 was used together with increased concentrations of test compounds ranging from 0.01 nM to 10 μM. Each test tube contained 50 000 freshly harvested CHO cells expressing mGluR4 cultured in HAMs cell culture medium with 100 nM of glutamate, penicillin-streptomycin (100 units), and 1 mM G418. [3H]4 (2 nM) was added to the cell extract with and without test compounds on ice and then incubated for 30 min at room temperature. Samples were centrifuged at 1200 rpm for 10 min at 4° C. and washed three times with a cold cell culture medium as a washing buffer. Samples were lysed by adding 100 μL of 0.5% NaOH and heated using a heating block (56° C., 30 min). Samples were cooled with an ice bath and transferred to Solvent-Saver scintillation vials (VWR International LLC.). To obtain binding parameters, the scintillation liquid (PerkinElmer, Optima Gold) was added prior to counting with a scintillation counter (Packard TriCarb Model, 1 min/vial). Nonspecific binding was determined using 10 μM of nonradioactive test compound, and specific binding was determined by extracting the nonspecific binding from total binding. All measurements were done in triplicate and analyzed with GraphPad Prism software (GraphPad Software Inc.).

[4] = plasma protein binding, ultrafiltration assay using [18F]15; type: in vitro ADME; details: human plasma
Procedure: Plasma Protein Binding Assay. An aliquot of radiolabeled compound [^18F]15 in saline (10 μL, 74 kBq) was added to a sample of human plasma (0.5 mL). The mixture was gently mixed by repeated inversion and incubated for 10 min at room temperature. Following incubation, a small sample (10 μL) was removed to determine the total radioactivity in the plasma sample (AT; AT=Abound+Aunbound). The upper part of the Centrifree tube was discarded, and an aliquot (10 μL) from the bottom part of the tube was removed to determine the amount of unbound radioactivity (Aunbound) that passed through the membrane (molecular weight cutoff 30 kD). The radioactivity of each sample was measured using PerkinElmer Wizard2 2480 gamma-counter. Plasma protein binding was derived by the following equation: % unbound=Aunbound×100/AT.
As the PET tracer is delivered into the bloodstream, it can bind to albumin, α1-acid glycoprotein and lipoproteins. Plasma protein binding reduces the free drug in the bloodstream and inhibits BBB penetration to reach the brain target. (Ref 44) The PPB value was obtained with an ultrafiltration assay by using [^18F]15. […] These pharmacological properties along with other molecular properties such as MW, tPSA and HBO are in the range normally considered favorable for a PET ligand.

[5] = Log D7.4, scaled-down shake flask method using [18F]15; type: physicochemical; details: octanol / phosphate buffer pH 7.4
Procedure: The test tube was mixed by vortex for 2 min and then centrifuged for 2 min to fully separate the aqueous and organic phase. The samples taken from the octanol layer (0.1 mL) and the aqueous layer (1.0 mL) were saved for radioactivity measurement. An additional aliquot of the octanol layer […] was carefully transferred to a new test tube containing 0.5 mL of octanol and 2.5 mL of phosphate buffer solution (pH 7.4). The previous procedure (vortex mixing, centrifugation, sampling, and transfer to the next test tube) was repeated until six sets of aliquot samples had been prepared. The radioactivity of each sample was measured using PerkinElmer Wizard2 2480 gamma-counter. The log D of each set of samples was calculated as the following:
Log D7.4=Log(radioactivity of octanol layer×10/radioactivity of PBS layer)
Lipophilicity has a major effect on BBB penetration, ADMET properties and pharmacological activity. […] The Log D7.4 of 15 was 3.82 as measured with a scaled-down shake flask method using [^18F]15 (Table 2) and is in the range normally considered favorable for a PET ligand. (Ref. 43).

mGluR4, sequence (Q14833 33-912): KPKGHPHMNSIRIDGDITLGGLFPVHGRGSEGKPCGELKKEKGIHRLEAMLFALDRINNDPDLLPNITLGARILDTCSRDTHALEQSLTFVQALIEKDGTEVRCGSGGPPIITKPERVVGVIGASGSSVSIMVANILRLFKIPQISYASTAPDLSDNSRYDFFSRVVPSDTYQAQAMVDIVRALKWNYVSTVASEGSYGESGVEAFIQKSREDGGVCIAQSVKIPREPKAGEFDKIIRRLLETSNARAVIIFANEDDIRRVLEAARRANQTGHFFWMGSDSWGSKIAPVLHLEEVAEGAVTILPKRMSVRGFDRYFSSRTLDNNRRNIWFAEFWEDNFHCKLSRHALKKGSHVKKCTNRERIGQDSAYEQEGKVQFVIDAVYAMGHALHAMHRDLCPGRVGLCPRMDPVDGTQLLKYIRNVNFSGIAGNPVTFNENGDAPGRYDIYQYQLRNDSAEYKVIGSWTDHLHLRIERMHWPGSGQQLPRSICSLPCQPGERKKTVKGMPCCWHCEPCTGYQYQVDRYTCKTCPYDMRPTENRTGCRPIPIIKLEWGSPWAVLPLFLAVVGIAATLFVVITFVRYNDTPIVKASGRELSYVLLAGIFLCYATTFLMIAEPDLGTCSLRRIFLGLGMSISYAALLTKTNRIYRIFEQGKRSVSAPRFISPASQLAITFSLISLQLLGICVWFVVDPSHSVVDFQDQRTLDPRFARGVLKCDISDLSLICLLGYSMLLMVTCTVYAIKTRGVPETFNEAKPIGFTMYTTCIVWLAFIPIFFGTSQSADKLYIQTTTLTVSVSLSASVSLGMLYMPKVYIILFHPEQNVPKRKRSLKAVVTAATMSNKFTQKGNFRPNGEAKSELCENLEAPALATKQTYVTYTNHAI

The microsome stability t1/2 [1]: 57.258 min and 57.3 min
Plasma stability, remaining of the intact test compound ([2]; 0 min): 100.00 ± 1.88%
Plasma stability, remaining of the intact test compound ([2]; 15 min): 93.46 ± 1.96%
Plasma stability, remaining of the intact test compound ([2]; 30 min): 104.21 ± 2.84%
Plasma stability, remaining of the intact test compound ([2]; 60 min): 94.54 ± 5.18%
Plasma stability, remaining of the intact test compound ([2]; 120 min): 84.52 ± 10.16%
The plasma stability, The intact ± SEM at 120 min (%) ([2]; 120 min): 84.5 ± 10.2%
IC50 [3]: 3.4 nM
PPB (plasma protein binding) [4]: 93.1%
Log D7.4 [5]: 3.82
Compound: [2H]C([2H])(F)Sc1cc(NC(=O)c2ccccn2)ccc1Cl [Compound 15, N-(4-Chloro-3-((fluoromethyl-d2)thio)phenyl)picolinamide]
